Reference: US6436874B1, “Synergistic herbicidal agents based on leaf herbicides containing phosphorus, imidazolinones and hormone weed killers” (priority 1998, dated 2002)
Like-named read-outs stand apart in the source and are kept apart here.

Legend:
Format in all cases: in vivo
[1] = tested on: Hedyotis verticillata; assay: Field trial, herbicidal activity against Hedyotis verticillata in oil palm plantation; details: for inhibition at 50 g/ha: Scleromitrion verticillatum, No. 14, dose 50 g of AS/ha, read-out: Herbicidal activity (%), w. after appl.
Protocol: (§1) In an oil palm plantation, the economically important tropical weed Hedyotis verticillata was grown on plots of the dimensions 2×5 m under natural outdoor conditions and treated with the herbicides A1.2, B1 and C1 or their mixtures in a tank mix under standard conditions using a plot sprayer, at a water application rate of 450 liters of water per hectare (over-the-top application to the weeds; plant density initially more than 95% ground coverage). At intervals of 1, 2, 3, 4, 5, 6, 7 and 8 weeks after the application, the herbicidal efficacy of the active compounds or active compound mixtures was evaluated visually on the basis of the treated plots, in comparison with untreated control plots. The damage to and development of all above-ground parts of the plants were recorded. Evaluation was carried out using a percentage scale (100% effect=all plants killed; 50% effect=50% of the plants and the green parts of the plants killed; 0% effect=no noticeable effect=like control plot). The evaluation values of in each case 4 plots were averaged.

[2] = tested on: Asystasia intrusa; assay: Field trial, herbicidal activity against Asystasia intrusa in rubber tree plantation; details: for inhibition at 50 g/ha: Asystasia intrusa, No. 3, dose 50 g of AS/ha; for Activity (%), w. after appl.: No. 16, dose 40 g of AS/ha
Protocol: as §1
In a rubber tree plantation, plots with the tropical weed Asystasia intrusa were grown under natural outdoor conditions (dimensions of the plots 2 x 5 m). The herbicides or their mixtures in a tank mix were applied under standard conditions (over-the-top application using a plot sprayer, water application rate 450 l/ha). In intervals of 4, 7, 13, 17 and 21 weeks after the application, the herbicidal efficacy of the active compounds or their mixtures was evaluated visually on the basis of the treated plots, in comparison with untreated control plots. The damage to and the development of all above-ground parts of the plants were recorded. Evaluation was carried out as described in Example 1.

[3] = tested on: Axonopus compressus; assay: Field trial, herbicidal activity against Axonopus compressus in rubber tree plantation; details: for inhibition at 50 g/ha: Axonopus compressus, No. 3, dose 50 g of AS/ha; for Activity (%), w. after appl.: No. 16, dose 40 g of AS/ha
Protocol: as §1
In a rubber tree plantation, plots with the tropical weed Axonopus compressus were grown under natural outdoor conditions (plot dimensions 2×5 m). The herbicides or their mixtures in a tank mix were applied under standard conditions using a plot spayer at a water application rate of 450 liters of water per hectare (over-the-top application). At intervals of 4, 7, 13, 17 and 21 weeks after the application, the herbicidal efficacy of the active compounds or active compound mixtures was evaluated visually on the basis of the treated plots, in comparison with untreated control plots. The damage to and development of all above-ground parts of the plants were recorded. Evaluation was carried out as described in Example 1.

## CC(C)C1(C)N=C(c2ncccc2C(=O)O)NC1=O (centres unmarked) [B1, Imazapyr]
[1]; 1 w. after appl.
  inhibition at 50 g/ha: 8%
[1]; 2 w. after appl.
  inhibition at 50 g/ha: 5%
[1]; 3 w. after appl.
  inhibition at 50 g/ha: 5%
[1]; 4 w. after appl.
  inhibition at 50 g/ha: 5%
[1]; 5 w. after appl.
  inhibition at 50 g/ha: 10%
[1]; 6 w. after appl.
  inhibition at 50 g/ha: 13%
[1]; 7 w. after appl.
  inhibition at 50 g/ha: 15%
[1]; 8 w. after appl.
  inhibition at 50 g/ha: 15%
[2]; 4 w. after appl.
  inhibition at 50 g/ha: 45%
[2]; 7 w. after appl.
  inhibition at 50 g/ha: 40%
[2]; 13 w. after appl.
  inhibition at 50 g/ha: 40%
[2]; 17 w. after appl.
  inhibition at 50 g/ha: 47%
[2]; 21 w. after appl.
  inhibition at 50 g/ha: 53%
[3]; 4 w. after appl.
  inhibition at 50 g/ha: 35%
[3]; 7 w. after appl.
  inhibition at 50 g/ha: 35%
[3]; 13 w. after appl.
  inhibition at 50 g/ha: 45%
[3]; 17 w. after appl.
  inhibition at 50 g/ha: 45%
[3]; 21 w. after appl.
  inhibition at 50 g/ha: 50%

## O=C([O-])COc1ccc(Cl)cc1Cl.[Na+] [C1, 2,4-D-sodium salt]
[1]; No. 15, dose 40 g of AS/ha, 1 w. after appl.
  Herbicidal activity (%), w. after appl.: 6%
[1]; No. 15, dose 40 g of AS/ha, 2 w. after appl.
  Herbicidal activity (%), w. after appl.: 5%
[1]; No. 15, dose 40 g of AS/ha, 3 w. after appl.
  Herbicidal activity (%), w. after appl.: 5%
[1]; No. 15, dose 40 g of AS/ha, 4 w. after appl.
  Herbicidal activity (%), w. after appl.: 4%
[1]; No. 15, dose 40 g of AS/ha, 5 w. after appl.
  Herbicidal activity (%), w. after appl.: 0%
[1]; No. 15, dose 40 g of AS/ha, 6 w. after appl.
  Herbicidal activity (%), w. after appl.: 0%
[1]; No. 15, dose 40 g of AS/ha, 7 w. after appl.
  Herbicidal activity (%), w. after appl.: 0%
[1]; No. 15, dose 40 g of AS/ha, 8 w. after appl.
  Herbicidal activity (%), w. after appl.: 0%
[1]; No. 16, dose 20 g of AS/ha, 1 w. after appl.
  Herbicidal activity (%), w. after appl.: 6%
[1]; No. 16, dose 20 g of AS/ha, 2 w. after appl.
  Herbicidal activity (%), w. after appl.: 5%
[1]; No. 16, dose 20 g of AS/ha, 3 w. after appl.
  Herbicidal activity (%), w. after appl.: 5%
[1]; No. 16, dose 20 g of AS/ha, 4 w. after appl.
  Herbicidal activity (%), w. after appl.: 1%
[1]; No. 16, dose 20 g of AS/ha, 5 w. after appl.
  Herbicidal activity (%), w. after appl.: 0%
[1]; No. 16, dose 20 g of AS/ha, 6 w. after appl.
  Herbicidal activity (%), w. after appl.: 0%
[1]; No. 16, dose 20 g of AS/ha, 7 w. after appl.
  Herbicidal activity (%), w. after appl.: 0%
[1]; No. 16, dose 20 g of AS/ha, 8 w. after appl.
  Herbicidal activity (%), w. after appl.: 0%
[2]; 4 w. after appl.
  Activity (%), w. after appl.: 77%
[2]; 7 w. after appl.
  Activity (%), w. after appl.: 67%
[2]; 13 w. after appl.
  Activity (%), w. after appl.: 20%
[2]; 17 w. after appl.
  Activity (%), w. after appl.: 10%
[2]; 21 w. after appl.
  Activity (%), w. after appl.: 8%
[3]; 4 w. after appl.
  Activity (%), w. after appl.: 5%
[3]; 7 w. after appl.
  Activity (%), w. after appl.: 5%
[3]; 13 w. after appl.
  Activity (%), w. after appl.: 0%
[3]; 17 w. after appl.
  Activity (%), w. after appl.: 0%
[3]; 21 w. after appl.
  Activity (%), w. after appl.: 0%
